For series [1], the system named is HFF. The note with it: read-out: Cytotoxicity: CC50 (HFF), data from literature ref 48; cited from earlier work.
Series [2] deals with ART-resistant parasites F32-ART at the quiescent stage. Nature of the series: Quiescent-stage Survival Assay (QSA), 48-h exposure. The class given is cell-based, Plasmodium falciparum. On the procedure: The sensitivity of the ART-resistant parasites F32-ART at the quiescent stage towards the different molecules was determined using the QSA (Quiescent-stage Survival Assay), as previously described.
Epidrugs were tested at their IC90 values. In the present study, quiescence was induced using 3 µM of ART or 700 nM of DHA [28]. Thus, D-sorbitol synchronized ring-stage parasites at 3% parasitemia and 2% hematocrit (5 mL of culture per well in 6-well plates) were first exposed to 6 h of ART or DHA to induce quiescence and then to 48 h of the combination “ART or DHA + compound to be tested”. The combinations “ART 6 h/ART 48 h” or “DHA 6 h/DHA 48 h” were used as controls. The compounds were evaluated, in parallel, on proliferating parasites, i.e., without any pre-treatment. After drug exposure, parasite cultures were washed with 40 mL of RPMI-1640 medium and cultured in drug-free conditions supplemented with 10% human serum in new wells. The parasitemia for each condition was then microscopically monitored every 2 days. Culture media were renewed twice a week and 25 µL of fresh red blood cells were added once a week. Obtained data were used to perform Kaplan–Meier survival analyses considering censored data. The outcome was defined as the day when parasite cultures reached the initial parasitemia (3%) and data were considered as censored if no parasite recrudescence was observed during the 30-day experiment timeframe. When relevant, statistical significance between results obtained for the conditions “ART/ART” and “ART/ART + compound to be tested” or “DHA/DHA” and “DHA/DHA + compound to be tested” was determined by a Log Rank (Mantel Cox) test using GraphPad Prism version 7.05. For the best compounds targeting histones, in order to compare western blots data, modified QSAs were carried out by comparing “DHA 6 h/DHA 24 h” versus “DHA 6 h/DHA + compound to be tested 24 h”.

Series [3] concerns Plasmodium falciparum F32-TEM (artemisinin-sensitive twin line). Nature of the series: Standard chemosensitivity assay (SYBR Green I), F32-TEM. The series is classed as cell-based. The conditions noted are these: read-out: Antiplasmodial Activity: IC50, F32-TEM. On the procedure: (§1) They differ by eight mutations in seven genes (PF3D7_0110400, PF3D7_1343700, PF3D7_0213400, PF3D7_1115700, PF3D7_1302100, PF3D7_1459600, PF3D7_1464500) among them the M476I mutation on the kelch13 gene. F32-ART and F32-TEM strains have RSA^0–3 h values up to 12% and less than 0.1%, respectively. […] Both strains were cultured, in the same conditions, according to the Trager and Jensen protocol with modifications. Briefly, parasites were cultivated in RPMI-1640 medium (Biowest) at 2% hematocrit in human red blood cells and 5% human serum (EFS, French Blood Bank) under 5% CO2 in a humid atmosphere at 37 °C.
(§2) The antimalarial activities of the compounds were evaluated on both strains. […] Antimalarial activities were determined with the SYBR Green I method. Each drug concentration was tested in triplicate. The parasites were incubated with the drugs for 48 h. Plates were read on a BioTek FLX800 Microplate Fluorescence Reader (Bio-Tek instruments, Winooski, VT, USA) (λexcitation = 485 nm, λemission = 528 nm). Control parasite culture (i.e., RPMI with 0.5% DMSO) was referred to as 100% growth. IC50 and IC90 values were determined using GraphPad Prism version 7.05 (GraphPad Software, San Diego, CA, USA). Results were the mean of 3 independent experiments. When it is relevant, statistical significance between results obtained with both parasite strains was determined by a Mann–Whitney test using GraphPad Prism version 7.05.

The subject of series [4] is Plasmodium falciparum F32-ART (artemisinin-resistant strain). Nature of the series: Standard chemosensitivity assay (SYBR Green I), F32-ART. The series is classed as cell-based. The note with it: for IC50: read-out: Antiplasmodial Activity: IC50, F32-ART; for Selectivity Index CC50/IC50: ratio cytotoxicity (mammalian cell type of the CC50)/antiplasmodial activity on F32-ART. As to the method:
as §1, §2

For series [5], the system named is H3K4me2. Kind of series: Immunoblotting, histone mark abundance in F32-ART parasites. The class given is cell-based, Plasmodium falciparum. The note with it: 90nM. As to the method: (§3) Abundance of methylated and acetylated histone was determined in parasite cultures in different conditions: “not-treated”, “DHA 24 h”, “DHA 6 h/DHA 24 h” and “DHA 6 h/DHA + compound to be tested 24 h”. At the end of the treatments, parasite cultures were washed in RPMI-1640 and then twice in PBS 1× before red blood cell lysis with 0.075% saponin (Sigma-Aldrich) in PBS. Parasite ghosts were washed 3 times in PBS before incubating the ghosts with E1A lysis buffer (50 mM Hepes pH 7.5; 250 mM NaCl; 5 mM EDTA; 0.1% Triton X-100, 1 mM DTT, 0.2 mM PMSF supplemented with complete Mini EDTA-free protease inhibitor cocktail (Roche®, Basel, Switzerland)) for 15 min. Ghosts were then sonicated for 3 × 15s ON/OFF cycles to shear parasite membranes. Debris were pelleted by centrifuging for 15 min at 13,800× g and 4 °C, and supernatants (containing parasitic proteins) were then collected. Protein concentrations were determined using BCA assay (Bio-Rad, Hercules, CA, USA) according to the manufacturer’s instructions. For each sample, 10 µg of proteins were mixed with 4× sample buffer (10 mL 50% Glycerol, 5 mL 0.5 M Tris HCl pH 6.8, 4 mL 20% SDS, 0.02% Bromophenol blue for a total solution volume of 20 mL) and 100 mM DTT and then separated on 15% SDS-PAGE gels in Laemmli running buffer. Gels were then wet-transferred O/N at 20 V onto PVDF membranes. Membranes were blocked in TBST for 1 h at room temperature. Bottom parts were then probed with histone antibodies while upper parts were probed with PFALDOLASE antibody (Abcam, ab38905, Cambridge, UK) at 1:20,000 dilution. The following primary antibodies were used: anti-H3K4me1 (Abcam, ab8895); anti-H3K4me2 (Abcam, ab35356); anti-H3K9me2 (Abcam, ab1220); anti-H3K9me3 (Millipore, 07-442, Burlington, MA, USA); anti-tetra-acetyl H4 (Millipore, 06-866); anti-H4K8Ac (Millipore, 07-328); anti-H4K20me3 (Abcam, ab9053); anti-H3K4me3 (Diagenode) and anti-H3K9Ac (Millipore, 07-352) at 1:10,000. The following secondary antibodies were used: anti-rabbit IgG-Peroxidase produced in goat (Sigma-Aldrich) or anti-mouse IgG-Peroxidase (Sigma-Aldrich); at 1:20,000 dilutions. Blots were developed using ECL Prime Western Blotting (GE Healthcare, Chicago, IL, USA) and read on a Chemidoc touch imaging software. Densitometry analysis was performed by using ImageLab software from Bio-Rad. To determine if variations in histone abundances were statistically significant, immunoblotting experiments were performed on 3 biological replicates and each run was performed twice.

Series [6] deals with H3K4me3. Described as above. The series is classed as cell-based, Plasmodium falciparum. The note with it: 90nM. As to the method:
as §3

For series [7], the system named is H3K4me1. The series is described as above. The conditions noted are these: 90nM. The series is classed as cell-based, Plasmodium falciparum. As to the method: as §3
Series [8] relates to H4K20me3. Described as above. The series is classed as cell-based, Plasmodium falciparum. The conditions noted are these: 90nM. On the procedure: as §3
In series [9] the test system is MCF7. The conditions noted are these: cited from earlier work.
Where [10] appears, read: Plasmodium falciparum, F32, 48 h.
Setting [11] is: 24 h, F32-ART ring stage proliferating, 3 replicates (Fig 3B).
Setting [12] is: DHA 6 h/DHA + BIX-01294 24 h, F32-ART DHA-treated parasites, 3 replicates (Fig 3F).

SMILES strings stand for the structures. Values joined by “and” are separate entries in the source; they are usually repeats but may differ in a detail not shown here. Equal values may be shown once. Read-outs that look alike come from different tables or passages of the source.

Turning to `COc1cc2nc(N3CCCN(C)CC3)nc(NC3CCN(Cc4ccccc4)CC3)c2cc1OC` [BIX-01294], the CC50 (usually the concentration at which the toxic effect on the cells reaches its halfway point) in series [1] was 6100 nM. Also, the “Delay in parasite recrudescence time (difference between median recrudescence times), ART/ART + compound vs ART/ART” value in series [2] (quiescence induced with ART 3 µM 6 h, then 48 h ART + compound at its IC90) stood at 8.5 days. Also, the “Delay in recrudescence time, DHA/DHA + compound vs DHA/DHA” value in [2] (quiescence induced with DHA 700 nM 6 h, then 48 h DHA + compound at its IC90) is reported as “slightly shorter delay”. The IC50 (commonly the concentration at which inhibition is half-maximal) in series [3] (setting [10]) came to 55 ± 14 nM; in series [4] (setting [10]), 56 ± 8 nM. The “Selectivity Index CC50/IC50” value in series [4] was 110. In addition, the “Fold change of H3K4me2 abundance, BIX-01294 vs DMSO” value in [5] (setting [11]) is “significantly decreased level and 0.66 and 0.68 and 0.73”. In addition, the “Fold change of H3K4me2 abundance, BIX-01294, quiescent stage” value in series [5] (setting [12]) was “did not induce a quantifiable change and 1.57 and 0.88 and 0.79”. Moreover, the “Fold change of H3K4me3 abundance, BIX-01294 vs DMSO” value in [6] (setting [11]) was “significantly decreased level and 0.89 and 0.88 and 0.80”. The “Fold change of H3K4me3 abundance, BIX-01294, quiescent stage” value in [6] (setting [12]) was “did not induce a quantifiable change and 1.11 and 1.28 and 0.96”. Also, the “Fold change of H3K4me1 abundance, BIX-01294 vs DMSO” value in series [7] (setting [11]) was “significantly decreased level and 0.58 and 0.68 and 0.70”. The “Fold change of H3K4me1 abundance, BIX-01294, quiescent stage” value in [7] (setting [12]) is “did not induce a quantifiable change and 1.47 and 1.13 and 0.70”. In series [8] (setting [11]), the “Fold change of H4K20me3 abundance, BIX-01294 vs DMSO” value is “significantly decreased level and 0.69 and 0.64 and 0.72”. Also, the “Fold change of H4K20me3 abundance, BIX-01294, quiescent stage” value in series [8] (setting [12]) was “did not induce a quantifiable change and 0.66 and 1.37 and 0.84”.
As to `O=C(CCCCCCC(=O)N[c-]1cccc1)NO.[Fe+2].c1cc[cH-]c1` [JAHA], the cytotoxic concentration (CC50) in [9] (MCF7 cancer, data from literature ref 42, read-out: Cytotoxicity: CC50 (MCF7 cancer)) was 2400 nM. In addition, the IC50 came to 690 ± 80 nM in series [3] (F32-TEM, 48 h incubation, SYBR Green I, mean ± SEM of 3 experiments (* mean of 2)) and 460 ± 30 nM in [4] (F32-ART, 48 h incubation, SYBR Green I, mean ± SEM of 3 experiments (* mean of 2)).
On to `COc1ccc(CN2CCc3ccc(C(=O)NO)cc32)cc1` [PCI 34051], for which the CC50 in [9] (MCF7, data from literature ref 45, read-out: Cytotoxicity: CC50 (MCF7)) is over 20000 nM. For the same compound, the IC50 in series [3] (Plasmodium falciparum, F32-TEM, 48 h incubation, SYBR Green I, mean ± SEM of 3 experiments (* mean of 2)) turned out to be 9000 nM; in series [4] (Plasmodium falciparum, F32-ART, 48 h incubation, SYBR Green I, mean ± SEM of 3 experiments (* mean of 2)) it was 8000 nM. Further, in series [4], the “Selectivity Index CC50/IC50” value is over 2.5.

The record behind these values is PMC10610379, “Epidrugs as Promising Tools to Eliminate Plasmodium falciparum Artemisinin-Resistant and Quiescent Parasites” (Pharmaceutics, 2023).
